Test results published in ChEMBL document CHEMBL1667796, “Synthesis and evaluation of phosphonated N-heteroarylcarboxamides as DOXP-reductoisomerase (DXR) inhibitors” (Bioorg Med Chem, 2011).
The source made the active and inactive calls. The calls are words filed in the database; no cut-off is given here.

What was measured:
Escherichia coli [1] = test: Binding affinity at Escherichia coli DXR by saturation transfer difference NMR spectroscopy
[2] = Inhibition of Escherichia coli DXR assessed as conversion of NADPH to NADP by spectrophotometry
Escherichia coli [3] = test: Inhibition of Escherichia coli DXR assessed as conversion of NADPH to NADP at 500 uM by spectrophotometry
Escherichia coli [4] = test: Inhibition of Escherichia coli DXR assessed as conversion of NADPH to NADP at 0.3 uM by spectrophotometry

SMILES	Activity (Escherichia coli [1])	IC50 ([2]; read-out: IC50) [µM]	inhibition (Escherichia coli [3])	inhibition (Escherichia coli [4]) [%]	IC50 [2]
CCOP(=O)(CC(=O)Nc1ccccn1)OCC	Active	472	58.5%	–	–
O=CN(O)CCCP(=O)(O)O	–	–	–	99.3	–
CCOP(=O)(CC(=O)NCc1ccco1)OCC	Active	408	67.7%	–	–
CCOP(=O)(CC(=O)Nc1nccs1)OCC	Active	730	28.9%	–	–
CCOP(=O)(CC(=O)Nc1nc(C)c(C(C)=O)s1)OCC	Active	1290	–	–	–
O=C(CP(=O)([O-])[O-])Nc1ccccn1.[Na+].[Na+]	Active	–	inactive	–	Not Active
CC(=O)c1sc(NC(=O)CP(=O)(O)O)nc1C	Active	> 1500	16.6%	–	–
O=C(CP(=O)(O)O)Nc1nccs1	Active	> 1500	7.4%	–	–
O=C(CP(=O)(O)O)Nc1ccon1	Active	> 1500	12.2%	–	–
CCOP(=O)(CC(=O)Nc1ccon1)OCC	Active	1170	11.7%	–	–
O=C(CP(=O)(O)O)NCc1ccco1	Active	1030	30%	–	–
